According to patent US9932340B2, “Substituted indoles” (AbbVie Inc., priority 2014, dated 2018):

Each compound was assayed against SUV420H1 enzyme (Homo sapiens, UniProt Q4FZB7) (assay: TR-FRET SAH SUV420H1 enzyme inhibition assay). Conditions: Histone Peptide H4(8-30)me1 and SAM, overnight at room temp, TR-FRET detection of SAH, read-out: TR-FRET SAH_SUV420H1 IC50.
SUV420H1 enzyme, sequence (Q4FZB7 whole entry): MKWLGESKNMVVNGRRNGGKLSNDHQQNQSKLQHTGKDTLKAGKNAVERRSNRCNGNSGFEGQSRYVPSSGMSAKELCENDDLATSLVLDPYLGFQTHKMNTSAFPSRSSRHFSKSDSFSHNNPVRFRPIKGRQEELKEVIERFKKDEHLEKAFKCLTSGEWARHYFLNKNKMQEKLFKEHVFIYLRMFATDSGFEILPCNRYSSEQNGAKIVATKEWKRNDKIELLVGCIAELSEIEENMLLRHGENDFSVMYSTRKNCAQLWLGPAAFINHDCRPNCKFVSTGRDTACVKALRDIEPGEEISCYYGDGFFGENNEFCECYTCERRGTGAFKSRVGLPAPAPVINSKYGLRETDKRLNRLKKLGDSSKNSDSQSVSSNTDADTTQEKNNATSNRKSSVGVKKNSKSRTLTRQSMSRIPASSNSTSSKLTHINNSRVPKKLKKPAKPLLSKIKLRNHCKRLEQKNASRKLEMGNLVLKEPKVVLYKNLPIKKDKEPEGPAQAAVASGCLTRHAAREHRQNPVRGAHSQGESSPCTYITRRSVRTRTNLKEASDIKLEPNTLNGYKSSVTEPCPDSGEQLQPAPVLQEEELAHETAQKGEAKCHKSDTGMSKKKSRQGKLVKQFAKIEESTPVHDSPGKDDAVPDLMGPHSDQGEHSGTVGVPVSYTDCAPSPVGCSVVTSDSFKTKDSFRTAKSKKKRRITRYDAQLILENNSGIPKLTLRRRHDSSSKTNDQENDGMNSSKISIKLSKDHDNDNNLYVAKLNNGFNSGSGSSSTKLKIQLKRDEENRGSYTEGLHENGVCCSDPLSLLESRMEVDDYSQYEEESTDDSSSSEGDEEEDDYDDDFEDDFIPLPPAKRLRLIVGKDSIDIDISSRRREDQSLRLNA
Format: biochemical
How it was run: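 SUV420H1 (90 nM) preincubated 30 min with compound (3-fold dilutions, 50 to 0.00075 μM), then H4(8-30)me1 peptide 5 nM and SAM 4 nM added, overnight at room temp. SAH product detected by TR-FRET with Tb anti-SAH antibody and Oregon Green-SAH in RIPA buffer, 4 h; IC50 from Hill fit, asymptotes fixed 0-100%.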
`COc1cccc(-c2ccc(Cn3cnc4c(N)ncnc43)c3[nH]c(CN)cc23)c1` [Example 79, 9-{[2-(aminomethyl)-4-(3-methoxyphenyl)-1H-indol-7-yl]methyl}-9H-purin-6-amine] was tested, and the IC50 was 548 nM. `Nc1ncnc2c1ncn2Cc1cc(Cl)cc2cc(CNC(=O)CN3CCCC3)[nH]c12` [Example 120, N-({7-[(6-amino-9H-purin-9-yl)methyl]-5-chloro-1H-indol-2-yl}methyl)-2-(pyrrolidin-1-yl)acetamide] gave an IC50 of 1490 nM. `NCc1cc2cc(C3=CCOCC3)cc(Cn3cnc4c(N)ncnc43)c2[nH]1` [Example 12, 9-{[2-(aminomethyl)-5-(3,6-dihydro-2H-pyran-4-yl)-1H-indol-7-yl]methyl}-9H-purin-6-amine] showed an IC50 of 334 nM. With `NCc1cc2cc(-c3ccc(CO)cc3)cc(Cn3cnc4c(N)ncnc43)c2[nH]1` [Example 33, (4-{2-(aminomethyl)-7-[(6-amino-9H-purin-9-yl)methyl]-1H-indol-5-yl}phenyl)methanol] the IC50 was 528 nM. In the case of `Nc1ncnc2c1ncn2Cc1cc(Cl)cc2cc(CNC(=O)c3ccc4[nH]nnc4c3)[nH]c12` [Example 331, N-({7-[(6-amino-9H-purin-9-yl)methyl]-5-chloro-1H-indol-2-yl}methyl)-1H-benzotriazole-6-carboxamide], the IC50 is reported as 2580 nM. Work on `Nc1ncnc2c1ncn2Cc1cc(Cl)cc2cc(CNC(=O)c3ccccc3C(=O)N3CCCCC3)[nH]c12` [Example 324, N-({7-[(6-amino-9H-purin-9-yl)methyl]-5-chloro-1H-indol-2-yl}methyl)-2-(piperidin-1-ylcarbonyl)benzamide] yielded an IC50 of 12500 nM. `COc1ccccc1-c1cc(Cn2cnc3c(N)ncnc32)c2[nH]c(CN)cc2c1` [Example 36, 9-{[2-(aminomethyl)-5-(2-methoxyphenyl)-1H-indol-7-yl]methyl}-9H-purin-6-amine] was tested, and the IC50 was 2410 nM. Work on `Cc1ccccc1CC(=O)NCc1cc2cc(Cl)cc(Cn3cnc4c(N)ncnc43)c2[nH]1` [Example 294, N-({7-[(6-amino-9H-purin-9-yl)methyl]-5-chloro-1H-indol-2-yl}methyl)-2-(2-methylphenyl)acetamide] yielded an IC50 greater than 50000 nM. Compound `COc1cccc(-c2cc(Cn3cnc4c(N)ncnc43)c3[nH]c(CNC(=O)c4c(C)noc4C)cc3c2)c1` [Example 169, N-({7-[(6-amino-9H-purin-9-yl)methyl]-5-(3-methoxyphenyl)-1H-indol-2-yl}methyl)-3,5-dimethyl-1,2-oxazole-4-carboxamide] has an IC50 of 80.1 nM. Compound `Nc1ncnc2c1ncn2Cc1cc(Cl)cc2cc(CNC(=O)C34CC5CC(CC(C5)C3)C4)[nH]c12` [Example 136, N-({7-[(6-amino-9H-purin-9-yl)methyl]-5-chloro-1H-indol-2-yl}methyl)tricyclo[3.3.1.1^3,7]decane-1-carboxamide] has an IC50 of 10500 nM.
